Measured values published in the supplement of paper PMC8612539.
Values after ≈ are worked out from the molar mass of the structure shown.

What was measured:
[1] = tested on: Pasteurella multocida; experiment: minimum inhibitory concentration (MIC)
Experimental: (§1)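 Broth microdilution MIC (Sensititre BOPO7F bovine plate, CLSI methods) of 19 antimicrobials against field isolates of P. multocida, M. haemolytica, H. somni (deep nasopharyngeal swabs) and E. coli, Enterococcus spp. (rectal swabs) from weaned dairy heifers. Incubation 16-24 h at 35 C. MIC is the lowest concentration preventing visible growth. Values with <= or > lie at the tested range limits. Trimethoprim-sulfamethoxazole is given as the trimethoprim component of a 1:19 mixture.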

[2] = tested on: Enterococcus spp.; experiment: minimum inhibitory concentration (MIC)
Experimental: as §1

CCCN1C[C@H](C)[C@@H](O)[C@](C)(O)[C@@H](CC)OC(=O)[C@H](C)[C@@H](O[C@H]2C[C@@](C)(OC)[C@@H](O)[C@H](C)O2)[C@H](C)[C@@H](O[C@@H]2O[C@H](C)C[C@H](N(C)C)[C@H]2O)[C@](C)(O)C[C@H]1C [Gamithromycin]
minimum inhibitory concentration [µg/mL]
Conditions | [1] | [2]
isolate (source animal id): 2 | – | ≤ 1
isolate (source animal id): 35 | – | > 8
isolate (source animal id): 42 | – | ≤ 1
isolate (source animal id): 44 | – | 2 (≈ 2.57 µM)
isolate (source animal id): 79 | – | 2 (≈ 2.57 µM)
isolate (source animal id): 88 | – | ≤ 1
isolate (source animal id): 91 | – | ≤ 1
isolate (source animal id): 92 | – | 2 (≈ 2.57 µM)
isolate (source animal id): 111 | – | ≤ 1
isolate (source animal id): 122 | – | > 8
isolate (source animal id): 123 | – | ≤ 1
isolate (source animal id): 133 | – | ≤ 1
isolate (source animal id): 158 | – | > 8
isolate (source animal id): 168 | – | ≤ 1
isolate (source animal id): 169 | – | ≤ 1
isolate (source animal id): 171 | – | ≤ 1
isolate (source animal id): 175 | – | > 8
isolate (source animal id): 177 | – | ≤ 1
isolate (source animal id): 181 | – | ≤ 1
isolate (source animal id): 182 | – | ≤ 1
isolate (source animal id): 183 | – | 2 (≈ 2.57 µM)
isolate (source animal id): 187 | – | ≤ 1
isolate (source animal id): 190 | – | ≤ 1
isolate (source animal id): 194 | – | ≤ 1
isolate (source animal id): 195 | – | ≤ 1
isolate (source animal id): 197 | – | ≤ 1
isolate (source animal id): 211 | – | ≤ 1
isolate (source animal id): 214 | – | 4 (≈ 5.15 µM)
isolate (source animal id): 222 | – | ≤ 1
isolate (source animal id): 223 | – | ≤ 1
isolate (source animal id): 228 | – | 8 (≈ 10.3 µM)
isolate (source animal id): 230 | – | 8 (≈ 10.3 µM)
isolate (source animal id): 235 | – | > 8
isolate (source animal id): 236 | – | ≤ 1
isolate (source animal id): 239 | – | 4 (≈ 5.15 µM)
isolate (source animal id): 241 | – | > 8
isolate (source animal id): 244 | – | ≤ 1
isolate (source animal id): 246 | – | ≤ 1
isolate (source animal id): 247 | – | > 8
isolate (source animal id): 250 | – | ≤ 1
isolate (source animal id): 252 | – | > 8
isolate (source animal id): 268 | – | > 8
isolate (source animal id): 269 | ≤ 1 | –
isolate (source animal id): 270 | 8 (≈ 10.3 µM) | –
isolate (source animal id): 274 | 8 (≈ 10.3 µM) | –
isolate (source animal id): 275 | 8 (≈ 10.3 µM) | –
isolate (source animal id): 276 | 8 (≈ 10.3 µM) | –
isolate (source animal id): 277 | ≤ 1 | –
isolate (source animal id): 278 | 8 (≈ 10.3 µM) | –
isolate (source animal id): 279 | 8 (≈ 10.3 µM) | –
isolate (source animal id): 280 | > 8 | –
isolate (source animal id): 282 | – | ≤ 1
isolate (source animal id): 284 | > 8 | –
isolate (source animal id): 285 | > 8 | > 8
isolate (source animal id): 287 | 8 (≈ 10.3 µM) | –
isolate (source animal id): 289 | – | ≤ 1
isolate (source animal id): 290 | 8 (≈ 10.3 µM) | ≤ 1
isolate (source animal id): 294 | 8 (≈ 10.3 µM) | –
isolate (source animal id): 295 | > 8 | –
isolate (source animal id): 296 | 8 (≈ 10.3 µM) | ≤ 1
isolate (source animal id): 298 | – | ≤ 1
isolate (source animal id): 301 | – | ≤ 1
isolate (source animal id): 307 | 8 (≈ 10.3 µM) | –
isolate (source animal id): 310 | 8 (≈ 10.3 µM) | > 8
isolate (source animal id): 311 | 8 (≈ 10.3 µM) | –
isolate (source animal id): 312 | > 8 | –
isolate (source animal id): 313 | > 8 | –
isolate (source animal id): 315 | > 8 | –
isolate (source animal id): 316 | > 8 | –
isolate (source animal id): 320 | – | ≤ 1
isolate (source animal id): 331 | – | ≤ 1
isolate (source animal id): 333 | – | ≤ 1
isolate (source animal id): 341 | – | > 8
